According to patent US7083982B2, “Helium-neon excitable reticulocyte dyes derivable from halolepidines” (Abbott Laboratories, priority 1996, dated 2006):

Assays:
[1] = Absorption maximum of the dye; assay type: physicochemical; details: for absorption maximum in methanol: in methanol solution
Method: The following table sets forth the absorption maximum in nanometers for several dyes suitable for use in this invention.
To the activated 3-ethyl-2-methylbenzothiazolium derivative obtained above (4.5 mg) was added the 7-chloro-1-methyllepidinium salt obtained above (3.8 mg) in chloroform (250 μL) to form a mixture. Then triethylamine (50 μL) was added to the mixture. The resulting mixture was stirred at reflux for 30 minutes, during which time a dark blue solution was obtained. Diethyl ether was added to the solution and the resultant suspension was centrifuged. The supernatant was discarded and the precipitate resuspended in diethyl ether and centrifuged (2 times). The dark powder absorbed maximally at 638 nm in methanol solution.

DNA = assay: Fluorescence of dye with DNA in CD4000 Retic Buffer, flow cytometer with helium-neon laser
Method: (§1) Fluorescence was determined by dissolving the dye in a buffer (“CD4000 Retic Buffer”) at neutral pH and at a final concentration of 0.5 μg/ml of test solution. The “CD4000 Retic Buffer” contained the following ingredients in the amounts indicated: The tests were run in a flow cytometer with a helium-neon laser light source. The helium-neon laser provided light at a wavelength of 630 nm. The optical system was a conventional optical system.

[2] = Fluorescence of dye only in CD4000 Retic Buffer, flow cytometer with helium-neon laser; assay type: physicochemical
Method: as §1

RNA = assay: Fluorescence of dye with RNA in CD4000 Retic Buffer, flow cytometer with helium-neon laser
Method: as §1

[3] = fluorescence relative to dye only intensity 1.0

Row | SMILES | Absorption maximum (nm) [1] [nm] | absorption maximum in methanol [1] [nm] | further results
1 | CN1C=C/C(=C\C=C\c2oc3ccc4ccccc4c3[n+]2C)c2ccc(Cl)cc21 [Dye 9] | 624 | 624 | –
2 | CN1C=C/C(=C\C=C\c2sc3ccccc3[n+]2C)c2ccc(Br)cc21 [Dye 5] | 638 | – | –
3 | CN1C=C/C(=C\C=C\c2sc3ccccc3[n+]2C)c2ccc(Cl)cc21 [Dye 8] | – | 638 | –
4 | CN1C=C/C(=C\C=C\C2=[N+](C)c3ccc4ccccc4c3C2(C)C)c2ccc(Cl)cc21 [Dye 6] | – | 623 | –
5 | CC[n+]1c(/C=C/C=C2\C=CN(C)c3cc(Cl)ccc32)sc2ccccc21 [Dye 7] | 638 | 638 | Bandwidth with DNA (DNA; emission, with DNA): 35; Enhancement with DNA (DNA; [3]): 50.4; Emission wavelength with DNA (nm) (DNA; with DNA, 0.5 μg/ml, neutral pH, 630 nm laser): 661.8 nm; Emission wavelength - dye only (nm) ([2]; 0.5 μg/ml, neutral pH, 630 nm laser): 655.6 nm; Bandwidth ([2]; emission): 45; Bandwidth with RNA (RNA; emission, with RNA): 36; Enhancement with RNA (RNA; [3]): 39.1; Emission wavelength with RNA (nm) (RNA; with RNA, 0.5 μg/ml, neutral pH, 630 nm laser): 671.2 nm
6 | CN1C=C/C(=C\C=C\c2sc3ccccc3[n+]2C)c2ccc(F)cc21 [Dye 2] | 628 | – | –
